According to ChEMBL document CHEMBL1201862, “PubChem BioAssay data set” (2004):
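48-hour exposure; five concentrations; linearly interpolated endpoints. GI50 marks 50% less growth.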 Active and inactive are the calls of the source. Cut-off read from the data, not from the text of the source: active = GI50 up to about 1.1 µM and inactive = higher.

What was measured:
Experiment in all cases: NCI-60 cell line screen, 48 h
K562 = system: K562
HCT-15 = system: HCT-15
HT-29 = system: HT-29
SK-MEL-28 = system: SK-MEL-28
SK-OV-3 = system: SK-OV-3
SN12C = system: SN12C
SK-MEL-5 = system: SK-MEL-5
LXFL 529 = system: LXFL 529
SK-MEL-2 = system: SK-MEL-2
CCRF-CEM = system: CCRF-CEM
HL-60 = system: HL-60
MOLT-4 = system: MOLT-4
ACHN = system: ACHN
OVCAR-4 = system: OVCAR-4
UACC-257 = system: UACC-257
A498 = system: A498
HOP-92 = system: HOP-92
SW-620 = system: SW-620

CNC(=O)C(C)Oc1ccc(OCC2CCCCC2)cc1 (configuration not stated)
GI50 (K562): 65 µM (inactive) | GI50 (HCT-15): > 100 µM | GI50 (HT-29): 86.3 µM (inactive) | GI50 (SK-MEL-28): > 100 µM (inactive) | GI50 (SK-OV-3): > 100 µM (inactive) | GI50 (SN12C): > 100 µM (inactive) | GI50 (SK-MEL-5): 82.6 µM (inactive) | GI50 (LXFL 529): 77.4 µM (inactive) | GI50 (SK-MEL-2): > 100 µM (inactive) | GI50 (CCRF-CEM): > 100 µM (inactive) | GI50 (HL-60): 34.4 µM (inactive) | GI50 (MOLT-4): > 100 µM (inactive) | GI50 (ACHN): > 100 µM (inactive) | GI50 (OVCAR-4): > 100 µM (inactive) | GI50 (UACC-257): 61.1 µM (inactive) | GI50 (A498): > 100 µM (inactive)

CN1CCN(C)C1c1cccc(C2N(C)CCN2C)c1
GI50 (K562): 46.2 µM (inactive) | GI50 (HCT-15): > 100 µM | GI50 (HOP-92): > 100 µM (inactive) | GI50 (HT-29): > 100 µM (inactive) | GI50 (SK-MEL-28): > 100 µM (inactive) | GI50 (SK-OV-3): > 100 µM (inactive) | GI50 (SN12C): > 100 µM (inactive) | GI50 (LXFL 529): > 100 µM (inactive) | GI50 (SK-MEL-2): > 100 µM (inactive) | GI50 (CCRF-CEM): > 100 µM (inactive) | GI50 (HL-60): > 100 µM (inactive) | GI50 (MOLT-4): > 100 µM (inactive) | GI50 (ACHN): > 100 µM (inactive) | GI50 (OVCAR-4): > 100 µM (inactive) | GI50 (A498): > 100 µM (inactive)

NC1=NS(=O)(=O)Nc2nc(-c3cccs3)[nH]c21
GI50 (SW-620): > 100 µM (inactive) | GI50 (K562): > 100 µM (inactive) | GI50 (HCT-15): > 100 µM | GI50 (HOP-92): > 100 µM (inactive) | GI50 (HT-29): > 100 µM (inactive) | GI50 (SK-MEL-28): > 100 µM (inactive) | GI50 (SK-OV-3): > 100 µM (inactive) | GI50 (SN12C): > 100 µM (inactive) | GI50 (SK-MEL-5): > 100 µM (inactive) | GI50 (LXFL 529): > 100 µM (inactive) | GI50 (SK-MEL-2): > 100 µM (inactive) | GI50 (CCRF-CEM): > 100 µM (inactive) | GI50 (HL-60): > 100 µM (inactive) | GI50 (MOLT-4): > 100 µM (inactive) | GI50 (ACHN): > 100 µM (inactive) | GI50 (OVCAR-4): > 100 µM (inactive) | GI50 (A498): > 100 µM (inactive)

CCCCCCCCCCCCCP(=O)(O)NCC(N)=O
GI50 (SW-620): 99.8 µM (inactive) | GI50 (HCT-15): 39.9 µM | GI50 (HOP-92): 25.4 µM (inactive) | GI50 (HT-29): > 100 µM (inactive) | GI50 (SK-MEL-28): 39.1 µM (inactive) | GI50 (SK-OV-3): > 100 µM (inactive) | GI50 (SN12C): 52.7 µM (inactive) | GI50 (SK-MEL-5): 61.1 µM (inactive) | GI50 (LXFL 529): 54.3 µM (inactive) | GI50 (SK-MEL-2): 53.2 µM (inactive) | GI50 (CCRF-CEM): 52.8 µM (inactive) | GI50 (HL-60): 19.7 µM (inactive) | GI50 (ACHN): 28.6 µM (inactive) | GI50 (OVCAR-4): 28.7 µM (inactive) | GI50 (UACC-257): 59.4 µM (inactive) | GI50 (A498): > 100 µM (inactive)

C#CC1(O)CCC2[C@@H]3CCc4cc(Oc5nc(F)nc(-c6c7ccccc7cn6C)n5)ccc4C3CC[C@@]21C (some centres not stated)
GI50 (SW-620): 55.5 µM (inactive) | GI50 (K562): > 67 µM (inactive) | GI50 (HCT-15): > 72.3 µM | GI50 (HOP-92): > 100 µM (inactive) | GI50 (HT-29): > 100 µM (inactive) | GI50 (SK-MEL-28): > 100 µM (inactive) | GI50 (SK-OV-3): > 100 µM (inactive) | GI50 (SN12C): > 100 µM (inactive) | GI50 (LXFL 529): > 100 µM (inactive) | GI50 (SK-MEL-2): > 100 µM (inactive) | GI50 (CCRF-CEM): 30.7 µM (inactive) | GI50 (HL-60): > 70.5 µM (inactive) | GI50 (MOLT-4): 44.9 µM (inactive) | GI50 (ACHN): > 100 µM (inactive) | GI50 (OVCAR-4): > 100 µM (inactive) | GI50 (UACC-257): > 100 µM (inactive) | GI50 (A498): > 100 µM (inactive)

COc1cccc2c1[C@]1(O)C(O)CCCC21 (some centres not stated)
GI50 (SW-620): > 100 µM (inactive) | GI50 (K562): > 100 µM (inactive) | GI50 (HCT-15): > 100 µM | GI50 (HT-29): > 100 µM (inactive) | GI50 (SK-MEL-28): > 100 µM (inactive) | GI50 (SK-OV-3): > 100 µM (inactive) | GI50 (SN12C): > 100 µM (inactive) | GI50 (SK-MEL-5): > 100 µM (inactive) | GI50 (LXFL 529): > 100 µM (inactive) | GI50 (SK-MEL-2): > 100 µM (inactive) | GI50 (CCRF-CEM): > 100 µM (inactive) | GI50 (MOLT-4): > 100 µM (inactive) | GI50 (ACHN): > 100 µM (inactive) | GI50 (OVCAR-4): > 100 µM (inactive) | GI50 (UACC-257): > 100 µM (inactive) | GI50 (A498): > 100 µM (inactive)
